{"source": "patent US6780633B2", "about": "“Methods for producing optically active amino acids” (Sumitomo Chemical Company, Limited, priority 1999, dated 2004)", "type_in_all_cases": "cell-based", "key": {"[1]": {"system": "Streptomyces roseus IFO12818", "experiment": "effect of aminotransferase inhibitor on production of L-p-chlorophenylalanine from D-form by cells, at equilibrium", "conditions": "inhibitor final 1 mM; 30° C., 24 hours (reaction equilibrated); absence of inhibitor = 100%", "description": "(§1) A 500 mL Sakaguchi flask containing 100 ml of a sterilized medium (pH 7.0) containing 1.0% (w/v) glycerol, 0.2% (w/v) polypeptone (Nihon Pharmaceutical Co., Ltd.), 0.3% (w/v) meat extract (Kyokuto Pharmaceutical Ind., Co., Ltd.), 0.3% (w/v) yeast extract (Difco), 0.1% (w/v) dipotassium phosphate, 0.1% (w/v) potassium mono phosphate, 0.03% (w/v) magnesium sulfate heptahydrate was inoculated with 1 mL of a culture of Nocardia diaphanozonaria strain JCM3208 which had previously been cultivated in a medium of the similar composition, and incubated at 30° C. for 2 days with a reciprocal shaking. 80 ml of this culture was subjected to centrifugation (10000 g, 10 minutes) to collect wet cells. The collected wet cells were washed twice with 80 ml of 100 mM potassium phosphate buffer (pH 7.0) and the wet cells thus obtained was suspended in 4 mL of 100 mM potassium phosphate buffer (pH 7.0) to obtain a cell suspension.\n(§2) 0.2 ml of the cell suspension was combined with 1.8 mL of 100 mM potassium phosphate buffer (pH7.0) containing D-p-chlorophenylalanine at 5.5 mM and an aminotransferase inhibitor shown in Table 6 at 1.1 mM, and incubated at 30° C. for 2 hours with a reciprocal shaking at 250 rpm. Each reaction mixture was analyzed at an early stage of the reaction by HPLC to quantify L-p-chlorophenylalanine produced by the reaction. The results are represented as the relative values each based on 100% production of L-p-chlorophenylalanine in the absence of the respective aminotransferase inhibitor.\n(§3) The reaction was performed similarly as in Example 6 except for using each of the microorganisms shown in Table 8 instead of Nocardia diaphanozonaria strain JCM3208 and except that the reaction time was 24 hours (when the reaction was equilibrated)."}, "[2]": {"system": "Pseudomonas oxalaticus IFO13593", "experiment": "effect of aminotransferase inhibitor on production of L-p-chlorophenylalanine from D-form by cells, at equilibrium", "conditions": "inhibitor final 1 mM; 30° C., 24 hours (reaction equilibrated); absence of inhibitor = 100%", "description": "as §1, §2, §3"}, "[3]": {"system": "Arthrobacter pascens IFO12139", "experiment": "effect of aminotransferase inhibitor on production of L-p-chlorophenylalanine from D-form by cells, at equilibrium", "conditions": "inhibitor final 1 mM; 30° C., 24 hours (reaction equilibrated); absence of inhibitor = 100%", "description": "as §1, §2, §3"}, "[4]": {"system": "Saccharopolyspora hirsuta JCM9109", "experiment": "effect of aminotransferase inhibitor on production of L-p-chlorophenylalanine from D-form by cells, at equilibrium", "conditions": "inhibitor final 1 mM; 30° C., 24 hours (reaction equilibrated); absence of inhibitor = 100%", "description": "as §1, §2, §3"}, "[5]": {"system": "Nocardia diaphanozonaria strain JCM3208", "experiment": "effect of aminotransferase inhibitor on production of L-p-chlorophenylalanine from D-form by cells", "conditions": "inhibitor final concentration 1 mM; D-p-chlorophenylalanine 5.5 mM; 30° C., 2 hours (early stage); absence of inhibitor = 100%", "description": "as §1, §2"}, "[6]": {"system": "Pseudomonas oleovorans IFO13583", "experiment": "effect of aminotransferase inhibitor on production of L-p-chlorophenylalanine from D-form by cells", "conditions": "inhibitor final 1 mM; 30° C., 2 hours; absence of inhibitor = 100%", "description": "as §1, §2\n(§4) The reaction was performed similarly as in Example 6 except for using each of the microorganisms shown in Table 7 instead of Nocardia diaphanozonaria strain JCM3208."}, "[7]": {"system": "Klebsiella planticola JCM7251", "experiment": "effect of aminotransferase inhibitor on production of L-p-chlorophenylalanine from D-form by cells", "conditions": "inhibitor final 1 mM; 30° C., 2 hours; absence of inhibitor = 100%", "description": "as §1, §2, §4"}, "[8]": {"system": "Pseudomonas chlororaphis IFO3521", "experiment": "effect of aminotransferase inhibitor on production of L-p-chlorophenylalanine from D-form by cells", "conditions": "inhibitor final 1 mM; 30° C., 2 hours; absence of inhibitor = 100%", "description": "as §1, §2, §4"}, "[9]": {"system": "Rhizobium meliloti IFO14782", "experiment": "effect of aminotransferase inhibitor on production of L-p-chlorophenylalanine from D-form by cells", "conditions": "inhibitor final 1 mM; 30° C., 2 hours; absence of inhibitor = 100%", "description": "as §1, §2, §4"}, "[10]": {"system": "Pseudomonas taetrolens IFO3460", "experiment": "effect of aminotransferase inhibitor on production of L-p-chlorophenylalanine from D-form by cells", "conditions": "inhibitor final 1 mM; 30° C., 2 hours; absence of inhibitor = 100%", "description": "as §1, §2, §4"}, "[11]": {"system": "Flavimonas oryzihabitans JCM2952", "experiment": "effect of aminotransferase inhibitor on production of L-p-chlorophenylalanine from D-form by cells", "conditions": "inhibitor final 1 mM; 30° C., 2 hours; absence of inhibitor = 100%", "description": "as §1, §2, §4"}}, "data": [{"smiles": "NC1C=CC=C(C(=O)O)C1", "note": "(racemic) [DL-Gabaculine]", "values": [{"measurement": "Relative value (%) of production of L-p-chlorophenylalanine", "setting": "[1]", "value": 97, "unit": "%"}, {"measurement": "Relative value (%) of production of L-p-chlorophenylalanine", "setting": "[2]", "value": 105, "unit": "%"}, {"measurement": "Relative value (%) of production of L-p-chlorophenylalanine", "setting": "[3]", "value": 96, "unit": "%"}, {"measurement": "Relative value (%) of production of L-p-chlorophenylalanine", "setting": "[4]", "value": 97, "unit": "%"}, {"measurement": "Relative value (%) of production of L-p-chlorophenylalanine", "setting": "[5]", "value": 92, "unit": "%"}, {"measurement": "Relative value (%) of production of L-p-chlorophenylalanine", "setting": "[6]", "value": 87, "unit": "%"}, {"measurement": "Relative value (%) of production of L-p-chlorophenylalanine", "setting": "[7]", "value": 102, "unit": "%"}, {"measurement": "Relative value (%) of production of L-p-chlorophenylalanine", "setting": "[8]", "value": 72, "unit": "%"}, {"measurement": "Relative value (%) of production of L-p-chlorophenylalanine", "setting": "[9]", "value": 88, "unit": "%"}, {"measurement": "Relative value (%) of production of L-p-chlorophenylalanine", "setting": "[10]", "value": 75, "unit": "%"}, {"measurement": "Relative value (%) of production of L-p-chlorophenylalanine", "setting": "[11]", "value": 105, "unit": "%"}]}, {"smiles": "N[C@H](CCl)C(=O)O", "note": "[β-Chloro-D-alanine]", "values": [{"measurement": "Relative value (%) of production of L-p-chlorophenylalanine", "setting": "[1]", "value": 114, "unit": "%"}, {"measurement": "Relative value (%) of production of L-p-chlorophenylalanine", "setting": "[2]", "value": 124, "unit": "%"}, {"measurement": "Relative value (%) of production of L-p-chlorophenylalanine", "setting": "[3]", "value": 83, "unit": "%"}, {"measurement": "Relative value (%) of production of L-p-chlorophenylalanine", "setting": "[4]", "value": 99, "unit": "%"}, {"measurement": "Relative value (%) of production of L-p-chlorophenylalanine", "setting": "[5]", "value": 108, "unit": "%"}, {"measurement": "Relative value (%) of production of L-p-chlorophenylalanine", "setting": "[6]", "value": 91, "unit": "%"}, {"measurement": "Relative value (%) of production of L-p-chlorophenylalanine", "setting": "[7]", "value": 90, "unit": "%"}, {"measurement": "Relative value (%) of production of L-p-chlorophenylalanine", "setting": "[8]", "value": 85, "unit": "%"}, {"measurement": "Relative value (%) of production of L-p-chlorophenylalanine", "setting": "[9]", "value": 108, "unit": "%"}, {"measurement": "Relative value (%) of production of L-p-chlorophenylalanine", "setting": "[10]", "value": 84, "unit": "%"}, {"measurement": "Relative value (%) of production of L-p-chlorophenylalanine", "setting": "[11]", "value": 144, "unit": "%"}]}, {"smiles": "N[C@@H](CCl)C(=O)O", "note": "[β-Chloro-L-alanine]", "values": [{"measurement": "Relative value (%) of production of L-p-chlorophenylalanine", "setting": "[1]", "value": 95, "unit": "%"}, {"measurement": "Relative value (%) of production of L-p-chlorophenylalanine", "setting": "[2]", "value": 91, "unit": "%"}, {"measurement": "Relative value (%) of production of L-p-chlorophenylalanine", "setting": "[3]", "value": 84, "unit": "%"}, {"measurement": "Relative value (%) of production of L-p-chlorophenylalanine", "setting": "[4]", "value": 101, "unit": "%"}, {"measurement": "Relative value (%) of production of L-p-chlorophenylalanine", "setting": "[5]", "value": 121, "unit": "%"}, {"measurement": "Relative value (%) of production of L-p-chlorophenylalanine", "setting": "[6]", "value": 94, "unit": "%"}, {"measurement": "Relative value (%) of production of L-p-chlorophenylalanine", "setting": "[7]", "value": 92, "unit": "%"}, {"measurement": "Relative value (%) of production of L-p-chlorophenylalanine", "setting": "[8]", "value": 102, "unit": "%"}, {"measurement": "Relative value (%) of production of L-p-chlorophenylalanine", "setting": "[9]", "value": 96, "unit": "%"}, {"measurement": "Relative value (%) of production of L-p-chlorophenylalanine", "setting": "[10]", "value": 87, "unit": "%"}, {"measurement": "Relative value (%) of production of L-p-chlorophenylalanine", "setting": "[11]", "value": 92, "unit": "%"}]}]}
